As usually defined, the IC50 is the midpoint of a concentration-inhibition curve. For orientation: inhibition means the change of the read-out against control, counted positive when it falls.

Read-outs that look alike come from different tables or passages of the source.

We go through two compounds from paper PMC5862592, “CDK8/19 inhibition induces premature G1/S transition and ATR-dependent cell death in prostate cancer cells” (Oncotarget, 2018).

For assay [1], the target named is T1, CDK19 (Homo sapiens, UniProt Q9BWU1).
T1 construct: GST-CDK19; with Cyclin C
T1 sequence (Q9BWU1 whole entry): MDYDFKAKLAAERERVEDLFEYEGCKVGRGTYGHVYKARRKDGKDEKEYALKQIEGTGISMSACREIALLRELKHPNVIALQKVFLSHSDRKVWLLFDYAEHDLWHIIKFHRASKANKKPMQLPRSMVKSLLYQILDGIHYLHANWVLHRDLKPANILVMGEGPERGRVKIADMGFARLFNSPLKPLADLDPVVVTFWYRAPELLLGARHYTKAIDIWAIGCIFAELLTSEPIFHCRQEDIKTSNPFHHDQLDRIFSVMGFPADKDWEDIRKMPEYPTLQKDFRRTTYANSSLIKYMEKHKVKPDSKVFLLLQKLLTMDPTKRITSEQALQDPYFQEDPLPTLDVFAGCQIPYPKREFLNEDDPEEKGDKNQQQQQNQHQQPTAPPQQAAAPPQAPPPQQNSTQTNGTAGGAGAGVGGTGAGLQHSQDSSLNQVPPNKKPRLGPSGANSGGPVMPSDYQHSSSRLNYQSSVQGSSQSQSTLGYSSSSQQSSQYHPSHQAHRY
T1 sequence (P24863 whole entry partner): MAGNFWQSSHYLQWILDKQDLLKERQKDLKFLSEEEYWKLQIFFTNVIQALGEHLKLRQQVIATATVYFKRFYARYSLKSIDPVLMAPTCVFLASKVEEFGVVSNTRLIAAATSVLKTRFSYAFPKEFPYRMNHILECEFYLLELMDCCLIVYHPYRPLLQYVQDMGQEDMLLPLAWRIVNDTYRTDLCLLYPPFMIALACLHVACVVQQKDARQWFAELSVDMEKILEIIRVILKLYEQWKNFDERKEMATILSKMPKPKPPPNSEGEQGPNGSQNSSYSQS
Briefly: TR-FRET ligand displacement assay (Kinase Tracer […], Tb-anti-GST); also KINOMEscan […] inhibition at […]. In kind it is binding.

The target in assay [2] is T2, CDK8 (Homo sapiens, UniProt P49336). Described as above. The arrangement: GST-CDK8; with Cyclin C. In kind it is binding.
T2 sequence (P49336 whole entry): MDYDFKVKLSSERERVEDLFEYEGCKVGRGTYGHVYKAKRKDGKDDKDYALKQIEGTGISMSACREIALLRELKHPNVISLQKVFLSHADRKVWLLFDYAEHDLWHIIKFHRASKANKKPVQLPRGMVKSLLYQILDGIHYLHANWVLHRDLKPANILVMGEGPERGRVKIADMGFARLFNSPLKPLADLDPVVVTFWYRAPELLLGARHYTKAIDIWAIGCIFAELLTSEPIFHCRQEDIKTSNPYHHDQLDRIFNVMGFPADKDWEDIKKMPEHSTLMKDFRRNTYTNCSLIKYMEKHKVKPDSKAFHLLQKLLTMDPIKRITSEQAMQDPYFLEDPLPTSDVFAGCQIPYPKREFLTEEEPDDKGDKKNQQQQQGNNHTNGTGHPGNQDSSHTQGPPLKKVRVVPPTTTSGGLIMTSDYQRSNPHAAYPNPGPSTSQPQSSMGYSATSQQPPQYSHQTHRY
T2 sequence (P24863 whole entry partner): as the sequence (P24863 whole entry partner) above
The target in assay [3] is T3, HASPIN (Homo sapiens, UniProt Q8TF76). The assay is described as follows: KINOMEscan competition binding at a single concentration ([…]). Particulars: read-out: % inhibition at 300 nM.
T3 sequence (Q8TF76 whole entry): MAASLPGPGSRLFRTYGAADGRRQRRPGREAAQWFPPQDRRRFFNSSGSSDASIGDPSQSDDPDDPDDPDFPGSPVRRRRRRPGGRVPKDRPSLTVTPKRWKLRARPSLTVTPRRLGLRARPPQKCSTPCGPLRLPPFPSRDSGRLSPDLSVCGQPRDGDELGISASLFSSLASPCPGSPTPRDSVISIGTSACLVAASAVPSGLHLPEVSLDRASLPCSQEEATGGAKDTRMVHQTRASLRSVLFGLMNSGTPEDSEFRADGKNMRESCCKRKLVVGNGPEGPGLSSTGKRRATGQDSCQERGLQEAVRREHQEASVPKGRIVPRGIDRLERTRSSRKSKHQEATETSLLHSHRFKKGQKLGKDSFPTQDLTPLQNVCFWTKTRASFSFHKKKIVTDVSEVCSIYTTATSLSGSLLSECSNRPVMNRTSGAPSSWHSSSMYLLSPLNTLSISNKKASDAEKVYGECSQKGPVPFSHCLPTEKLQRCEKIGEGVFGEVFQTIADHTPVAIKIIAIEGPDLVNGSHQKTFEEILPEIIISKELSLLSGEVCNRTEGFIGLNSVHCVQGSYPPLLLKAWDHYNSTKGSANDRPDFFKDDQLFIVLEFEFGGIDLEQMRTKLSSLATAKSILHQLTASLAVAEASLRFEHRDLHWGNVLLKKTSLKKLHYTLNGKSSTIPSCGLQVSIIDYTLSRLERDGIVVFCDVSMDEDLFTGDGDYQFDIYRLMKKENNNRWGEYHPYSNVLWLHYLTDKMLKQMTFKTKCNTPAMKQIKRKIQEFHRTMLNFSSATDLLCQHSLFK
Assay [4] has as its target T3, HASPIN. The assay is described as follows: biochemical. The arrangement: KINOMEscan active site-directed competition binding assay (DiscoveRx), 456 kinases, per cent of control at 300 nM. The conditions noted are these: sheet T-418; read-out: Percent of Control (%). Summed up:
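Active site-directed competition binding (KINOMEscan) across a 456-kinase panel, compounds tested at 300 nmol/L.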

The target in assay [5] is T1, CDK19. The assay is described as follows: TR-FRET ligand displacement assay (Kinase Tracer […], Tb-anti-GST); also KINOMEscan […] inhibition at […]. In kind it is binding. This is another data set of the same source. For orientation: In TR-FRET formats the signal depends on donor and acceptor labels being close together.
The target in assay [6] is T2, CDK8. The assay is described as follows: TR-FRET ligand displacement assay (Kinase Tracer […], Tb-anti-GST). In kind it is binding. The arrangement: GST-CDK8; with Cyclin C.

`Cc1ncccc1Oc1sc(C(N)=O)c2c1-c1c(cnn1C)CC2` [T-474, 1-methyl-8-((2-methylpyridin-3-yl)oxy)-4,5-dihydro-1H-thieno[3,4-g]indazole-6-carboxamide]: the half-maximal inhibitory concentration (IC50) on CDK19 [1] amounted to 1.9 nM; at CDK8 [2], 1.6 nM. Moreover, at HASPIN [3], the inhibition at 0.3 µM came out at 99%.

For `O=C(/C=C/c1cnccc1-c1ccc(F)cc1)Nc1ccc(CCc2nnco2)cc1` [T-418, (2E)-3-(4-(4-fluorophenyl)pyridin-3-yl)-N-(4-(2-(1,3,4-oxadiazol-2-yl)ethyl)phenyl)acrylamide], on HASPIN [4], the remaining binding at 0.3 µM is 90%. For the same compound, the half-maximal inhibitory concentration (IC50) at CDK19 [5] amounted to 62 nM; on CDK8 [6], 23 nM.
